{"source": "patent US20240374581A1", "about": "“SALT TYPES OF TRICYCLIC TETRAHYDRO ISOQUINOLINE DERIVATIVE” (JIANGSU HENGRUI PHARMACEUTICALS CO., LTD., priority 2021, published 2024)", "key": {"[1]": {"assay": "Hygroscopicity study (DVS)", "type": "physicochemical", "settings": "25° C.", "protocol": "DVS refers to dynamic vapor sorption: The measurement was conducted on SMS DVS Advantage; at 25° C., the humidity was changed as follows: 50%-95%-0%-95%-50%, in steps of 10% (5% for the last step) (specific humidity ranges are shown in corresponding patterns, and those listed here were used in most cases); the criterion was dm/dt≤0.002%.\nThe measurement was conducted with a Surface Measurement Systems intrinsic at 25° C., starting from 50% humidity in humidity range of 0%-95%, in steps of 10%; the criterion was dM/dT≤0.002% and TMAX of 360 min in two cycles."}, "ER (estrogen receptor)": {"biological_target": "ER (estrogen receptor) (Homo sapiens (Human), UniProt P03372)", "sequence (P03372 whole entry)": "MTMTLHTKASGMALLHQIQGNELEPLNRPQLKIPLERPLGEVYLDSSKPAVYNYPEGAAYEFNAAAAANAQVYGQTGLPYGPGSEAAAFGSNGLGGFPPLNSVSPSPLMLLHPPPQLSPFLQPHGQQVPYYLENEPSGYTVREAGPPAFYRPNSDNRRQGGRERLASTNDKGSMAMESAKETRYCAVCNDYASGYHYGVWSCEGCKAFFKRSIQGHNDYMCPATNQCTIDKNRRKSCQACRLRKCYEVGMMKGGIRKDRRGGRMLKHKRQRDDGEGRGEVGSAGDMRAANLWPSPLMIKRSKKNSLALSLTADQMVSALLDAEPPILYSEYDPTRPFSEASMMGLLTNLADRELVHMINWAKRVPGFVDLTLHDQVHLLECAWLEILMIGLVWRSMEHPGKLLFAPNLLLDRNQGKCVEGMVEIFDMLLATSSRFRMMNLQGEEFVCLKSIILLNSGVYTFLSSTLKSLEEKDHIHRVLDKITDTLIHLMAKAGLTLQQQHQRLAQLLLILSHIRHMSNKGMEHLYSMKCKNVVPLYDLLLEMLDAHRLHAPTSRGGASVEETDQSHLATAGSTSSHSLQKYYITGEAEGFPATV", "assay": "Inhibition of binding of E to ER (MCF-7/ERE-luciferase reporter)", "type": "cell-based", "settings": "MCF-7/ERE-luciferase cells, 0.1 nM estradiol, 24 h; read-out: IC50, inhibitory effect on the binding of E to ER", "protocol": "The compound of the present disclosure can inhibit the binding of E (estrogen) to ER (estrogen receptor), thereby blocking the binding of the complex of E and ER to ERE (estrogen response element), and consequently the expression of downstream luciferase proteins. The inhibitory effect of the compound of the present disclosure on the binding of E to ER was tested by using the following method.\nAn ERE was cloned upstream of the luciferase gene, and MCF-7/ERE-luciferase monoclonal cells were selected by transfection of MCF-7 (TCHu74, National Collection of Authenticated Cell Cultures). The MCF-7/ERE-luciferase cells were seeded into a 96-well plate with an MEM (hyclone, SH30024.01B) medium containing 10% charcoal stripped FBS (Moregate, FBSF), 1% sodium pyruvate (sigma, S8636), 1% non-essential amino acids (sigma, M7145) and 500 μg/mL G418 at a density of 30,000 cells/well and cultured at 37° C. with 5% CO2. […] The plate was let stand at room temperature in the dark for 10-15 min, and the chemiluminescence signal value was determined.\nThe inhibitory effect of the compound of the present disclosure on the binding of E to ER was determined through the above experiment. The chemiluminescence signal value was analyzed against the compound concentration (in log form) using Graphpad Prism, and the IC50 value of the compound was obtained."}}}
{"smiles": "[2H]C1([2H])Oc2cc3c(cc2O1)[C@@H](c1ccc(NC2CN(CCCF)C2)cn1)N(CC(F)(F)CO)[C@H](C)C3", "note": "[Compound 1, 2,2-Difluoro-3-((5S,7R)-5-(5-((1-(3-fluoropropyl)azetidin-3-yl)amino)pyridin-2-yl)-7-methyl-7,8-dihydro-[1,3]dioxolo[4,5-g]isoquinolin-6(5H)-yl-2,2-d2)propan-1-ol]", "values": [{"measurement": "Hygroscopicity grade", "setting": "[1]; 0% RH-80.0% RH", "result": "hygroscopic"}, {"measurement": "Crystal form after DVS", "setting": "[1]", "result": "Did not change"}, {"measurement": "Hygroscopicity 0% RH-80.0% RH", "setting": "[1]; DVS", "result": 4.6, "unit": "%"}, {"measurement": "Hygroscopicity 0.0% RH-95.0% RH", "setting": "[1]; DVS", "result": 6.7, "unit": "%"}, {"measurement": "IC50", "setting": "ER (estrogen receptor)", "result": 0.69, "unit": "nM"}]}
